Experiment [1] has as its target T1, LFA-1 (Homo sapiens, UniProt P20701).
T1 construct: greater than 90% occupancy of LFA-1 with efalizumab led to a greater than 50% clinical improvement in PASI score in a clinical trial; host or cells: leukocytes of psoriasis patients (in vivo)
Conditions: at greater than 90% occupancy of LFA-1; cited from earlier work.

In experiment [2] the test system is human mononuclear cells (PBMC) stimulated with staphylococcal enterotoxin B (SEB). As to the kind of experiment: cells. Type of experiment: cell-based.

Results on 2 compounds are retold here after patent US20090258069A1, “Delivery of LFA-1 antagonists to the gastrointestinal system” (priority 2008, published 2009).

Like-named read-outs stand apart in the source and are kept apart here. Where only a bound is given, the exact number is not on record here.

T1 sequence (P20701 26-1170): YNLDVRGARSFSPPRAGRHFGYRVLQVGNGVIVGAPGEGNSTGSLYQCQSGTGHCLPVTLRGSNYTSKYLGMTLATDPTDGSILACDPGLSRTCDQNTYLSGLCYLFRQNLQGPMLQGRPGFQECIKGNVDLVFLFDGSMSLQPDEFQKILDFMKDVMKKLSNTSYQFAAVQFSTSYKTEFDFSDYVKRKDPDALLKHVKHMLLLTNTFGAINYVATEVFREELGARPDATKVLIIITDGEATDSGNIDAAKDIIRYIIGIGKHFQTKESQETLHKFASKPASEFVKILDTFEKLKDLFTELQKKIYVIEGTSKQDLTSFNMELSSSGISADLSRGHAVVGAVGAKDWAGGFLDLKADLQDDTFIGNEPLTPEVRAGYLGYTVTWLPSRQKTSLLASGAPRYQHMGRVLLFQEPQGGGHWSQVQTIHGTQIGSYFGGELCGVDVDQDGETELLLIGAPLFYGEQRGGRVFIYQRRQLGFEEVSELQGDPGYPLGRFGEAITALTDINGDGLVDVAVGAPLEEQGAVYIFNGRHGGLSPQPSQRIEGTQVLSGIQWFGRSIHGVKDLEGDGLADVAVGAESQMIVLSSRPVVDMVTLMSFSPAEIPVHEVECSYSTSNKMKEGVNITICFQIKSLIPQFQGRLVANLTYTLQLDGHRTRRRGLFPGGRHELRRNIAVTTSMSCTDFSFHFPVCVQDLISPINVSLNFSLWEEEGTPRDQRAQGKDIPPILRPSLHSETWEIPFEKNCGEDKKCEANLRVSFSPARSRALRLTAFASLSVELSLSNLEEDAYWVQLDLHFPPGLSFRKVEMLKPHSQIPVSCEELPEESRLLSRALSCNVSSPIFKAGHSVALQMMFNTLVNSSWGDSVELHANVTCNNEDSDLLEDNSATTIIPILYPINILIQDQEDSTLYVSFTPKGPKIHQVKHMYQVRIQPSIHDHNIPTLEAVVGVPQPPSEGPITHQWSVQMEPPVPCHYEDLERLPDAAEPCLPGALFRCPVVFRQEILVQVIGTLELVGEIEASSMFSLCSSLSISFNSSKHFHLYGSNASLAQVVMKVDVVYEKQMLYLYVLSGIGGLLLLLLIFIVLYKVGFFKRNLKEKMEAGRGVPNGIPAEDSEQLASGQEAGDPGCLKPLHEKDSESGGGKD
T1 sequence (P05107 23-769 partner): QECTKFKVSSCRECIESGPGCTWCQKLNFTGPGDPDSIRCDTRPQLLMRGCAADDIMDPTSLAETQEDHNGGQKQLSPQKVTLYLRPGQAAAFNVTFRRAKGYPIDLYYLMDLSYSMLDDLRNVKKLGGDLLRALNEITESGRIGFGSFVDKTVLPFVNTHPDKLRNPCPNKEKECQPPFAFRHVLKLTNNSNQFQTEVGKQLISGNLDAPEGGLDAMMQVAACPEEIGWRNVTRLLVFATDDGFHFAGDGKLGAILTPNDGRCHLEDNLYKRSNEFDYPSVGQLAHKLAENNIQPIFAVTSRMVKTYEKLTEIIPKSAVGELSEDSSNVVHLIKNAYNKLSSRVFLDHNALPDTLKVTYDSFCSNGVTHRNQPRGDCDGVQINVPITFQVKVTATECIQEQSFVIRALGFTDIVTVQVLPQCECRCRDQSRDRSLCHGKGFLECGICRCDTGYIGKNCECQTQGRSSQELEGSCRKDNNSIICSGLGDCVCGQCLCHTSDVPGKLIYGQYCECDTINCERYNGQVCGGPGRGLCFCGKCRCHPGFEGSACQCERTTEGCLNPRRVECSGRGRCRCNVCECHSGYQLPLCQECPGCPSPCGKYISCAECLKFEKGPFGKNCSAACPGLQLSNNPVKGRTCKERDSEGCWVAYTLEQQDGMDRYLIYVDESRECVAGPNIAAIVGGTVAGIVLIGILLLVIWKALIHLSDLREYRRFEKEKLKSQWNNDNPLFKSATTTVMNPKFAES

As to “efalizumab: antibody binding LFA-1, clinical trial in plaque psoriasis”, the “clinical improvement in PASI score” value in experiment [1] is “greater than 50%”.
For the compound `O=C(NC(Cc1cc(=O)[nH]c2ccccc12)C(=O)O)c1ccc(Cl)cc1` (centres unmarked) [Rebamipide, reference compound], the EC50 in experiment [2] (read-out: EC50 Cytokine Release GM-CSF), in experiment [2] (read-out: EC50 Cytokine Release IFNγ), in experiment [2] (read-out: EC50 Cytokine Release IL-1α), in experiment [2] (read-out: EC50 Cytokine Release IL-1β), in experiment [2] (read-out: EC50 Cytokine Release IL-2) and in experiment [2] (read-out: EC50 Cytokine Release IL-3) was above 1 mM throughout. Also, the EC50 in experiment [2] (read-out: EC50 Cytokine Release IL-4), in experiment [2] (read-out: EC50 Cytokine Release IL-5), in experiment [2] (read-out: EC50 Cytokine Release IL-6), in experiment [2] (read-out: EC50 Cytokine Release IL-10), in experiment [2] (read-out: EC50 Cytokine Release IL-12p40) and in experiment [2] (read-out: EC50 Cytokine Release IL-13) was above 1 mM in each case. In addition, the EC50 in experiment [2] (read-out: EC50 Cytokine Release IP-10), in experiment [2] (read-out: EC50 Cytokine Release MCP-1), in experiment [2] (read-out: EC50 Cytokine Release MIP-1α) and in experiment [2] (read-out: EC50 Cytokine Release TNF-α) was above 1 mM throughout.
